In ChEMBL document CHEMBL1201862, “PubChem BioAssay data set” (2004):
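1) Cells in 96-well plates. 2) Compound, 48 h, 5 concentrations. 3) Linear interpolation between surrounding doses. 4) Unreached endpoint = highest concentration. The concentration for 50% growth inhibition is given as GI50.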 Activity calls are given as the source filed them. No stated cut-off is given here; in the data, active = GI50 up to about 1.1 µM and inactive = higher.

Tests used:
Experiment in all cases: DTP human tumour cell line panel, 48 h
CAKI-1 = test system: CAKI-1
OVCAR-4 = test system: OVCAR-4
OVCAR-3 = test system: OVCAR-3
SNB-78 = test system: SNB-78
UACC-62 = test system: UACC-62
SF-268 = test system: SF-268
SN12C = test system: SN12C
COLO 205 = test system: COLO 205
SNB-19 = test system: SNB-19
MDA-MB-435 = test system: MDA-MB-435
NCI/ADR-RES = test system: NCI/ADR-RES
T47D = test system: T47D
SF-539 = test system: SF-539
SK-MEL-5 = test system: SK-MEL-5
A549 = test system: A549
EKVX = test system: EKVX
SK-OV-3 = test system: SK-OV-3
CCRF-CEM = test system: CCRF-CEM
UACC-257 = test system: UACC-257
HCT-15 = test system: HCT-15

Row | Structure (SMILES) | GI50 (CAKI-1) | GI50 (OVCAR-4) | GI50 (OVCAR-3) | GI50 (SNB-78) | GI50 (UACC-62) | GI50 (SF-268) | GI50 (SN12C) | GI50 (COLO 205) | GI50 (SNB-19) | GI50 (MDA-MB-435) | GI50 (NCI/ADR-RES) | GI50 (T47D) | GI50 (SF-539) | GI50 (SK-MEL-5) | GI50 (A549) | GI50 (EKVX) | GI50 (SK-OV-3) | GI50 (CCRF-CEM) | GI50 (UACC-257) | GI50 (HCT-15)
1 | O=C1c2cc(CCl)sc2C(=O)c2ccsc21 | 1.72 µM (inactive) | 0.184 µM (active) | 0.207 µM (active) | 0.292 µM (active) | 0.178 µM (active) | 0.195 µM (active) | 0.277 µM (active) | 1.37 µM (inactive) | 0.225 µM (active) | 0.0187 µM (active) | 0.2 µM (active) | 0.241 µM (active) | 0.228 µM (active) | 0.0416 µM (active) | 0.199 µM (active) | 1.24 µM (inactive) | 1.85 µM (inactive) | 0.173 µM (active) | 0.181 µM (active) | 0.393 µM
2 | NC1=Nc2ccccc2Sc2ccccc21 | > 100 µM (inactive) | > 100 µM (inactive) | > 100 µM (inactive) | > 100 µM (inactive) | > 100 µM (inactive) | 56.9 µM (inactive) | > 100 µM (inactive) | > 100 µM (inactive) | 87.3 µM (inactive) | – | – | – | 58.5 µM (inactive) | 91.8 µM (inactive) | > 100 µM (inactive) | > 100 µM (inactive) | > 100 µM (inactive) | > 100 µM (inactive) | > 100 µM (inactive) | > 100 µM
3 | CCOCN/C(N)=N\C#N | > 100 µM (inactive) | > 10 µM (inactive) | > 100 µM (inactive) | > 100 µM (inactive) | > 100 µM (inactive) | > 100 µM (inactive) | > 100 µM (inactive) | > 100 µM (inactive) | > 100 µM (inactive) | – | – | – | > 100 µM (inactive) | > 100 µM (inactive) | > 100 µM (inactive) | > 100 µM (inactive) | > 100 µM (inactive) | > 100 µM (inactive) | > 100 µM (inactive) | 20.5 µM
